Tests used:
[1] = target: PARG (389-976) (Homo sapiens (Human), UniProt Q86W56); experiment: PARG enzyme inhibition assay (TR-FRET); format: biochemical
Protocol: PARG in vitro assays were conducted in standard 384-well plates in a total volume of 15 μL. 5 μL of PARG (389-976) (manufactured by Chempartner Chemical Co., Ltd.) in buffer (50 mM Tris-HCL 7.5, 30 mM KCl, 1 mM EDTA, 3 mM DTT, tween-20 0.01%, BSA 0.025%) was added at a final concentration of 1.5 pM to the 384-well plates containing the compounds to be tested, which was incubated for 30 min at room temperature. To the above mixture was added 5 μL Bio PARylated His-TEV-PARP1(2-1014) substrate (manufactured by Chempartner Chemical Co., Ltd.) at a final concentration of 12 nM, after addition, the resulting mixture was incubated for 30 minutes at room temperature. Then to the mixture was added detection reagent (5 μL) which was buffered with 50 mM Tris-HCL 7.5, 30 mM KCl, 1 mM EDTA, 3 mM DTT, tween-20 0.01%, BSA 0.025%, and consisted of 3 μM of compound PDD00017273 and 9 nM Mab anti-6HIS XL665 (Cisbio: 61HISXLA) and 0.9 nM streptavidin affinity terbium cryptate (Cisbio:610SATLA), all at 3× working concentrations (final concentrations of 1 μM, 3 nM and 0.3 nM, respectively). After 120 min incubation in the dark at room temperature, TR-FRET signals were measured at Ex 340 and Em 665 and Em 615. The ratio for each well was calculated as Em 665/Em 615 and the compound inhibition rate was calculated based on the obtained data.

[2] = test system: HCC1428; experiment: CTG assay for proliferation inhibition of cell lines; format: cell-based; settings: HCC1428, 7 days, CellTiter Glo
Protocol: (§1) The assay was conducted on either 384-well plates or 96-well plates. The procedures are as follows:
(§2) The cell suspensions were added to 384- or 96-well plates (384-well plate: 50 μL; 96-well plate: 100 μL) except for peripheral wells. The plates were incubated in a carbon dioxide incubator overnight, HCC1395, HCC1428 and NCI-H460 were placed in a carbon dioxide incubator of 5%, […] overnight. Prepared compounds (10 concentration gradients by serial 3-fold dilution) were added to the wells using the HPD300 micro-dosing instrument. The cell plates were incubated in a carbon dioxide incubator for 7 days. HCC1395, HCC1428 and NCI-H460 were incubated in a 5%, 37° CO2 incubator. On the day of plate measurement, 384- or 96-well plates were first equilibrated at room temperature for 10-30 minutes, then to the 384- or 96-well plate was added CellTiter Glo reagent (384-well plate: 25 μL; 96-well plate: 100 μL), shaken for 10 minutes away from light, and incubated for 10 minutes. The incubated plates were placed into Victor NIVO reader plates, and the pharmacodynamic inhibition curves were plotted and IC50 values were calculated using XLFit.

[3] = test system: HCC1395; experiment: as above; format: cell-based; settings: HCC1395, 7 days, CellTiter Glo
Protocol: as §1, §2

[4] = test system: NCI-H460; experiment: as above; format: cell-based; settings: NCI-H460, 7 days, CellTiter Glo
Protocol: as §1, §2

[5] = class symbol, Bio PARylated His-TEV-PARP1 substrate, TR-FRET
[6] = numeric value in parentheses under the class symbol

Sequence of PARG (389-976) (Q86W56 389-976): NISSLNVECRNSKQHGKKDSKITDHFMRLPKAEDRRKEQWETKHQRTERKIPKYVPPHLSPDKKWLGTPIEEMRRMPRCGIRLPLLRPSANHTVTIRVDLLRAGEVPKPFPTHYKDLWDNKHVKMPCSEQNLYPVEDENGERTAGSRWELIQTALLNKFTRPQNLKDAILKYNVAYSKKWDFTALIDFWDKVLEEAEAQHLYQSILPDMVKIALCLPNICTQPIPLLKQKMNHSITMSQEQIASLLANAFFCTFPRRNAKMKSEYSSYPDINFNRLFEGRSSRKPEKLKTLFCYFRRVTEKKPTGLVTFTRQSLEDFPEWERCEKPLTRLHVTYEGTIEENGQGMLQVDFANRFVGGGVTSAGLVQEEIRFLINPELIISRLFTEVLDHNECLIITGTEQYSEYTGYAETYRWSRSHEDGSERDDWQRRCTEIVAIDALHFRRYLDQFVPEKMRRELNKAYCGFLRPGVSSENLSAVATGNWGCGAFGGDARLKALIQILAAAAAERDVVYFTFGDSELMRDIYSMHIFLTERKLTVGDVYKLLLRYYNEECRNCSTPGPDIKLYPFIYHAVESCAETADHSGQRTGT

IC50 [1, 5] | IC50 [1, 6] | IC50 ([2]; Homo sapiens, 168 h) | IC50 ([3]; Homo sapiens, 168 h) | IC50 ([4]; Homo sapiens, 168 h) | IC50 [2] | IC50 [3] | IC50 [4] | SMILES
1 to 10 nM | 1.9 nM | 1.38 µM | 1.29 µM | 0.796 µM |  |  |  | CC(C)C(=O)N1CCN(c2cc(S(=O)(=O)NC3(C#N)CC3)cc3c2cnn3-c2nnc(C(F)F)s2)CC1 [1′, reference compound]
< 1 nM | 0.33 nM |  |  |  | 0.132 µM | 0.222 µM | 0.183 µM | Cn1nc(-c2nnc(C(F)F)s2)c2cc(S(=O)(=O)NC3(C#N)CC3)cc(C3=CCN(S(=O)(=O)C4CCOCC4)CC3)c21 [Compound 5]
1 to 10 nM |  |  |  |  | 1.17 µM | 0.197 µM | 0.147 µM | CC(C)S(=O)(=O)c1ccc(-c2cc(S(=O)(=O)NC3(C#N)CC3)cc3c(-c4nnc(C(F)F)s4)nn(C)c23)cc1 [Compound 9]
< 1 nM |  | 0.151 µM | 0.169 µM | 0.148 µM |  |  |  | Cn1nc(-c2nnc(C(F)F)s2)c2cc(S(=O)(=O)NC3(C#N)CC3)cc(C3=CCN(S(=O)(=O)C4CCC4)CC3)c21 [Compound 12]
< 1 nM |  | 0.399 µM | 0.126 µM | 0.122 µM |  |  |  | Cn1nc(-c2nnc(C(F)F)s2)c2cc(S(=O)(=O)NC3(C#N)CC3)cc(C3=CCN(S(=O)(=O)C4(C)CC4)CC3)c21 [Compound 14]
< 1 nM |  |  |  |  | 0.117 µM | 0.0955 µM | 0.0561 µM | CC(C)S(=O)(=O)N1CC=C(c2cc(S(=O)(=O)NC3(C#N)CC3)cc3c(-c4nnc(C(F)(F)F)s4)nn(C)c23)CC1 [Compound 15]
< 1 nM | 0.12 nM |  |  |  | 0.215 µM | 0.0423 µM | 0.0408 µM | CC(C)S(=O)(=O)N1CC=C(c2cc(S(=O)(=O)NC3(CF)CC3)cc3c(-c4nnc(C(F)F)s4)nn(C)c23)CC1 [Compound 18]
< 1 nM | 0.12 nM |  |  |  | 0.196 µM | 0.0532 µM | 0.0414 µM | CC(C)S(=O)(=O)N1CC=C(c2cc(S(=O)(=O)NC3(C)CC3)cc3c(-c4nnc(C(F)F)s4)nn(C)c23)CC1 [Compound 19]
< 1 nM | 0.06 nM |  |  |  | 3.02 µM | 3.95 µM | 2.81 µM | Cn1nc(-c2nnc(C(F)F)s2)c2cc(S(=O)(=O)NC3(C#N)CC3)cc(C3=CCN(S(=O)(=O)C4CNC4)CC3)c21 [Compound 20]
< 1 nM |  |  |  |  | 1.09 µM | 0.605 µM | 0.714 µM | Cn1nc(-c2nnc(C(F)F)s2)c2cc(S(=O)(=O)NC3(C#N)CC3)cc(C3=CCN(S(=O)(=O)C4COC4)CC3)c21 [Compound 22]
< 1 nM |  |  |  |  | 0.466 µM | 0.183 µM | 0.124 µM | COCC(C)S(=O)(=O)N1CC=C(c2cc(S(=O)(=O)NC3(C#N)CC3)cc3c(-c4nnc(C(F)F)s4)nn(C)c23)CC1 (stereo not shown) [Compound 23]
< 1 nM | 0.16 nM |  |  |  | 0.0865 µM |  | 0.139 µM | CC(C)S(=O)(=O)N1CC=C(c2cc(S(=O)(=O)NC3(C#N)CC3)cc3c(-c4nnc(C(F)F)s4)nn(CCN(C)C)c23)CC1 [Compound 26]
< 1 nM | 0.61 nM |  |  |  | 0.45 µM | 0.787 µM | 0.656 µM | CC(C)[S+]([O-])C1CC=C(c2cc(S(=O)(=O)NC3(C#N)CC3)cc3c(-c4nnc(C(F)F)s4)nn(C)c23)CC1 (stereo not shown) [Compound 30]
1 to 10 nM | 1.14 nM |  |  |  | 0.507 µM | 0.641 µM | 0.457 µM | CC(C)S(=O)(=O)C1CC=C(c2cc(S(=O)(=O)NC3(C#N)CC3)cc3c(-c4nnc(C(F)F)s4)nn(C)c23)CC1 (stereo not shown) [Compound 31]
1 to 10 nM | 1.03 nM |  |  |  | 0.232 µM | 0.177 µM | 0.21 µM | CN(C)S(=O)(=O)N1CC=C(c2cc(S(=O)(=O)NC3(C#N)CC3)cc3c(-c4nnc(C(F)F)s4)nn(C)c23)CC1 [Compound 32]
< 1 nM |  |  |  |  | 0.616 µM | 0.691 µM | 0.5 µM | CC(C)S(=N)(=O)N1CC=C(c2cc(S(=O)(=O)NC3(C#N)CC3)cc3c(-c4nnc(C(F)F)s4)nn(C)c23)CC1 (stereo not shown) [Compound 33]
< 1 nM |  |  |  |  | 0.698 µM | 0.284 µM | 0.162 µM | CC(C)S(=O)(=O)N1CCN(c2cc(S(=O)(=O)NC3(C#N)CC3)cc3c(-c4nnc(C(F)(F)F)s4)nn(C)c23)CC1 [Compound 35]
< 1 nM |  |  |  |  | 0.0978 µM | 0.127 µM | 0.0729 µM | CC(C)S(=O)(=O)N1CCC(c2cc(S(=O)(=O)NC3(C#N)CC3)cc3c(-c4nnc(C(F)F)s4)nn(C)c23)=C(CO)C1 [Compound 36]
< 1 nM |  |  |  |  | 0.4 µM | 0.432 µM | 0.366 µM | CC(C)S(=O)(=O)N1CCC2(c3cc(S(=O)(=O)NC4(C#N)CC4)cc4c(-c5nnc(C(F)F)s5)nn(C)c34)OC2C1 (stereo not shown) [Compound 38]
< 1 nM |  |  |  |  | 0.369 µM | 0.827 µM | 0.429 µM | Cn1nc(-c2nnc(C(F)F)s2)c2cc(S(=O)(=O)NC3(C#N)CC3)cc(C3=CCN(S(=O)(=O)C4CCNCC4)CC3)c21 [Compound 39]
< 1 nM |  |  |  |  | 0.454 µM | 0.3 µM | 0.261 µM | CN=S(=O)(C(C)C)N1CC=C(c2cc(S(=O)(=O)NC3(C#N)CC3)cc3c(-c4nnc(C(F)F)s4)nn(C)c23)CC1 (stereo not shown) [Compound 40]
 |  |  |  |  |  | 1.05 µM | 1.07 µM | CC(C)S(=O)(=O)N1CC=C(c2cc(S(=O)(=O)NC3(C#N)CC3)cc3c(-c4nnc(C(F)F)s4)n(CC4CC4)nc23)CC1 [Compound 44]
10 to 100 nM |  |  |  |  |  | 2.04 µM | 2.05 µM | CC(C)[S+]([O-])c1ccc(-c2cc(S(=O)(=O)NC3(C#N)CC3)cc3c(-c4nnc(C(F)(F)F)s4)nn(C)c23)nc1 (stereo not shown) [Compound 48]
1 to 10 nM |  |  |  |  | 0.201 µM | 0.253 µM | 0.216 µM | CC(C)S(=O)(=O)N1CC=C(c2cc(S(=O)(=O)NC3(C#N)CC3)cc3c(-c4nnc(C(F)(F)F)s4)nn(CC(F)(F)F)c23)CC1 [Compound 58]
1 to 10 nM |  | 0.0778 µM | 0.181 µM | 0.115 µM |  |  |  | CC(C)S(=O)(=O)N1CC=C(c2cc(S(=O)(=O)NC3(C#N)CC3)cc3c(-c4nnc(C(F)(F)F)s4)nn(CC4COC4)c23)CC1 [Compound 60]
< 1 nM |  |  |  |  |  | 0.296 µM | 0.292 µM | CC(C)S(=O)(=O)N1CC=C(c2cc(S(=O)(=O)NC3(C#N)CC3)cc3c(-c4nnc(C(F)F)s4)nn(C)c23)C(F)C1 (stereo not shown) [Compound 69]
< 1 nM |  |  |  |  | 0.0576 µM | 0.0462 µM |  | CC(C)S(=O)(=O)N1CCC(c2cc(S(=O)(=O)NC3(C#N)CC3)cc3c(-c4nnc(C(F)(F)F)s4)nn(C)c23)=C(CO)C1 [Compound 73]
1 to 10 nM |  |  |  |  | 0.0621 µM | 0.156 µM |  | CC(C)S(=O)(=O)N1CCC(c2cc(S(=O)(=O)NC3(C#N)CC3)cc3c(-c4nnc(C(F)(F)F)s4)nn(C)c23)=C(CN(C)C)C1 [Compound 74]
1 to 10 nM |  |  |  |  | 0.532 µM | 0.5 µM | 0.426 µM | CC(C)S(=O)(=O)N1CC=C(c2cc(S(=O)(=O)NC3(C#N)CC3)cc3c(-c4ccc(C(F)F)nn4)nn(C)c23)CC1 [Compound 78]

SMILES | IC50 [1, 5] | IC50 [1, 6] | IC50 ([2]; Homo sapiens, 168 h) | IC50 ([3]; Homo sapiens, 168 h) | IC50 ([4]; Homo sapiens, 168 h) | IC50 [2] | IC50 [3] | IC50 [4]
CC(C)S(=O)(=O)c1ccc(-c2cc(S(=O)(=O)NC3(C#N)CC3)cc3c(-c4nnc(C(F)F)s4)nn(C)c23)cn1 [Compound 24] | < 1 nM |  |  |  |  | 0.578 µM | 0.65 µM | 0.493 µM
CC(C)[S+]([O-])N1CC=C(c2cc(S(=O)(=O)NC3(C#N)CC3)cc3c(-c4nnc(C(F)F)s4)nn(C)c23)CC1 (stereo not shown) [Compound 25] | < 1 nM | 0.34 nM |  |  |  | 0.152 µM | 0.206 µM | 0.185 µM
CC(C)S(=O)(=O)N1CC=C(c2cc(S(=O)(=O)NC3(C#N)CC3)cc3c(-c4nnc(C(F)(F)F)s4)nn(Cc4ccncc4)c23)CC1 [Compound 59] | 1 to 10 nM |  |  | 0.357 µM | 0.27 µM |  |  | 

From patent US20250042891A1, “Compound containing structure of a heteroaromatic ring, pharmaceutical composition thereof and application thereof” (SHANGHAI YINGLI PHARMACEUTICAL CO., LTD, priority 2023, published 2025)
